The values below are quoted from earlier work in patent EP1085805B1, “USE OF AT LEAST ONE ACID FROM THE CITRIC ACID CYCLE COMBINED WITH GLYCERINE AS A PESTICIDE” (Biolink Technologies AG, priority 1998, dated 1999).

As for `Cl[C@H]1[C@H](Cl)[C@@H](Cl)[C@@H](Cl)[C@H](Cl)[C@H]1Cl` [Lindan], the “LD50 Wert Ratte oral” value was 88 mg/kg Körpergewicht. Turning to `ClC1=C(Cl)[C@]2(Cl)[C@@H]3[C@@H]4C[C@@H]([C@H]5O[C@@H]45)[C@@H]3[C@@]1(Cl)C2(Cl)Cl` [Dieldrin], the “LD50 Wert Ratte oral” value is reported as 56 mg/kg Körpergewicht.
